Measurements taken from patent US4424211A, “2'Deoxy-5-(2-halogenovinyl)-uridines, pharmaceutical compositions and method of use” (Rega Instituut VZW, priority 1981, dated 1984).
≈ marks a conversion by molar mass, not a printed value. Entries after “also recorded” stand apart in the source; their conditions may differ. Where two headings read alike, the source gives them in different places.

How the values were obtained:
[1] = tested on: vaccinia virus; test: microbe, parasite or virus in culture; format: cell-based; details: Orthopoxvirus vaccinia, 72 h
[2] = tested on: herpes simplex-1 (strain KOS) virus; test: microbe, parasite or virus in culture; format: cell-based, herpes simplex-1 virus (strain KOS); details: for IC50: 72 h, 100 CCID50, CPE, generally 3 days, average of three experiments; for selectivity of antiviral activity (in words): herpes simplex virus
[3] = Antimetabolic activity: inhibition of (methyl-^3 H)TdR incorporation into DNA of PRK cells (Test 3a); format: cell-based; details: rabbit
Method: (§1) (a) In a first experiment, the incorporation of certain radiolabelled DNA precursors into DNA of the cells, and the effect of 5-(2-bromovinyl)-2'-deoxyuridine and related compounds thereon, was tested. The technique has been described by De Clercq et al in Biochemical Pharmacology, 26, 794-797 (1977) and by De Clercq et al in Molecular Pharmacology, in press, 1978, which are incorporated herein by way of reference.
(§2) The DNA precursors as used were (methyl-^3 H) (2'-deoxythymidine) (TdR), and (2-^14 C) (2'-deoxyuridine) (UdR).
(§3) Incorporation of the radiolabelled precursor was then measured as described and the ID50 was determined.

[4] = Antimetabolic activity: inhibition of (2-^14 C)UdR incorporation into DNA of PRK cells (Test 3a); format: cell-based; details: rabbit
Method: as §1, §2, §3

[5] = tested on: herpes simplex-1; test: Antiviral index in PRK cell cultures: antimetabolic ID50 divided by antiviral ID50 (Test 4); format: cell-based, herpes simplex-1 virus; details: for Antiviral index: PRK cells, ID50 cell number / ID50 CPE of herpes simplex-1; for antiviral index (in words): against herpes simplex virus
Method: Finally, the antiviral index of 5-(2-bromovinyl)-2'-deoxyuridine and its related compounds in PRK cell cultures was determined as a result of the measurements made in the foregoing tests.
The antiviral index was calculated by dividing the "antimetabolic" ID50 by the "antiviral" ID50. The "antimetabolic" ID50 corresponded to the dose required to reduce the cell number by 50% whereas the "antiviral" ID50 corresponded to the dose required to inhibit the cytopathic effect of herpes simplex-1 by 50%.

[6] = Antimetabolic activity: reduction of total cell number of PRK cells (Test 3b); details: rabbit
[7] = tested on: DNA viruses such as vaccinia and herpes simplex; details: state of the art; cited from earlier work
[8] = state of the art; cited from earlier work
[9] = in vitro; details: rabbit, prk cells
[10] = tested on: cell culture; test: Toxicity in cell culture (summary statement)
[11] = tested on: cell culture
[12] = HSF, read-out: ID50 Vaccinia (HSF)
[13] = PRK, in Oryctolagus cuniculus, read-out: ID50 Vaccinia (PRK)
[14] = human skin fibroblast (HSF) cells, read-out: ID50 Herpes simplex-1 strain KOS (HSF)
[15] = primary rabbit kidney (PRK) cells, read-out: ID50 Herpes simplex-1 strain KOS (PRK)
[16] = PRK cells, 16 hours, read-out: ID50 (methyl-^3 H)TdR incorporation into DNA
[17] = PRK cells, 16 hours, read-out: ID50 (2-^14)UdR incorpor. into DNA

Row | Compound | IC50 [1, 12] | IC50 [1, 13] | IC50 [2, 14] | IC50 [2, 15] | IC50 at 16 h [3, 16] | IC50 at 16 h [4, 17] | Antiviral index [5] | CC50 at 72 h [6] | IC50 at 16 h ([3]; prk cells) | IC50 at 16 h ([4]; prk cells) | antiviral activity/specificity of known compounds (in words) [7] | toxicity of known compounds (in words) [8] | CC50 at 72 h [9] | selectivity of antiviral activity (in words) [2] | antiviral index (in words) [5] | toxicity (in words) [10] | toxicity (in words) [11]
1 | C#Cc1cn([C@H]2C[C@H](O)[C@@H](CO)O2)c(=O)[nH]c1=O [2'-deoxy-5-ethynyluridine] | 0.1 µg/mL (≈ 0.396 µM) | 0.2 µg/mL (≈ 0.793 µM) | 0.4 µg/mL (≈ 1.59 µM) | 0.07 µg/mL (≈ 0.278 µM) | 100 µg/mL (≈ 396 µM) | < 6 µg/mL | 5 | 0.3 µg/mL (≈ 1.19 µM) |  |  |  |  |  |  |  |  | 
2 | O=c1[nH]c(=O)n([C@H]2C[C@H](O)[C@@H](CO)O2)cc1I [2'-deoxy-5-iodouridine] | 0.2 µg/mL (≈ 0.565 µM) | 0.2 µg/mL (≈ 0.565 µM) | 0.7 µg/mL (≈ 1.98 µM) | 0.2 µg/mL (≈ 0.565 µM) |  |  | 30 |  | 2.5 µg/mL (≈ 7.06 µM) | 1.2 µg/mL (≈ 3.39 µM) | act equally well against different DNA viruses such as vaccinia and herpes simplex | cannot be neglected | 6 µg/mL (≈ 16.9 µM) |  |  |  | 
3 | C=Cc1cn([C@H]2C[C@H](O)[C@@H](CO)O2)c(=O)[nH]c1=O [2'-deoxy-5-vinyluridine] | 0.1 µg/mL (≈ 0.393 µM) | 0.4 µg/mL (≈ 1.57 µM) | 0.07 µg/mL (≈ 0.275 µM) | 0.04 µg/mL (≈ 0.157 µM) |  |  | 200 |  | 20 µg/mL (≈ 78.7 µM) | 8 µg/mL (≈ 31.5 µM) | act equally well against different DNA viruses such as vaccinia and herpes simplex | cannot be neglected | 8 µg/mL (≈ 31.5 µM) |  |  |  | 
4 | C=C(Cl)c1cn([C@H]2C[C@H](O)[C@@H](CO)O2)c(=O)[nH]c1=O [5-(1-chlorovinyl)-2'-deoxyuridine] | 0.7 µg/mL (≈ 2.42 µM) | 0.4 µg/mL (≈ 1.39 µM) | 2 µg/mL (≈ 6.93 µM) | 0.4 µg/mL (≈ 1.39 µM) |  |  | 5 |  | 27 µg/mL (≈ 93.5 µM) | < 6 µg/mL |  |  | 2 µg/mL (≈ 6.93 µM) |  |  |  | 
5 | O=c1[nH]c(=O)n([C@H]2C[C@H](O)[C@@H](CO)O2)cc1/C=C/Br [E-5-(2-bromovinyl)-2'-deoxyuridine] | 0.7 µg/mL (≈ 2.1 µM) | 7 µg/mL (≈ 21 µM) | 0.007 µg/mL (≈ 0.021 µM) | 0.007 µg/mL (≈ 0.021 µM) | 70 µg/mL (≈ 210 µM) | 35 µg/mL (≈ 105 µM) | > 5000 | > 33 µg/mL |  |  |  |  |  | specific antiviral activity; also recorded: very selective towards herpes simplex virus | remarkably high antiviral index | remarkably low | 
6 | O=c1[nH]c(=O)n([C@H]2C[C@H](O)[C@@H](CO)O2)cc1/C=C/I [E-5-(2-iodovinyl)-2'-deoxyuridine] |  | 10 µg/mL (≈ 26.3 µM) |  | 0.01 µg/mL (≈ 0.0263 µM) |  |  |  |  |  |  |  |  |  | specific antiviral activity; also recorded: very selective towards herpes simplex virus | high antiviral index |  | remarkably low
